In patent publication US6458806B1, “Aryl alkenamides derivatives as MCP-1 antagonists” (Millennium Pharmaceuticals, Inc., priority 1996, dated 2002):
Where a name gives a salt, the structure may show the parent alone.

Molecular target: T1, MCP-1 receptor (Homo sapiens, UniProt P41597)
T1 construct: host or cells: THP-1 cell membranes
Assay: MCP-1 binding assay (125I-MCP-1, THP-1 cell membranes)
Conditions: 0.2 nM 125I-labeled MCP-1, averages of several or two experiments, read-out: Inhibition Of MCP-1 Binding IC50
Experimental: Membranes used in the MCP-1 binding assay were prepared from THP-1 cells (human monocytic cell line source—American Type Culture Collection, Tumor Immunology Bank #202, Rockville, Md., accession no. ATCC TIB 202). Cells were harvested by centrifugation and washed twice in ice-cold PBS (phosphate-buffered saline) and the cell pellet was frozen at −80° C. in some cases. Cells were resuspended in ice-cold lysis buffer 5mM HEPES (2-(4N-,[2-hydroxyethyl] piperazin-1-yl)-N′-(2-ethanesulfonic acid), pH 7.5, 2 mM EDTA (ethylenediaminetetraacetic acid), 5 ug/ml each leupeptin, aprotinin, chymostatin (protease inhibitors), and 100 ug/ml PMSF (phenylmethane sulfonyl fluoride—also a protease inhibitor)) at a concentration of 5×10^7 cells/ml. […] Typical binding assays used 10-20 ug/well of total membrane protein as determined with a standard protein assay (e.g. BioRad, Richmond, Calif.).
For binding, 10-20 ug total membrane protein were included in the binding reaction along with 0.2 nM I^125-labeled MCP-1 (Amersham, Arlington Heights, Ill.) with or without unlabeled competitor MCP-1 (Peprotech, Rocky Hill, N.J.) (at 250-500 nM). […] Filters were dried and counted in a Beta-Plate scintillation counter using standard scintillation fluid. […]
IC50s were calculated using a non-linear 3-parameter logistic curve fit. […]

T1 sequence (P41597 whole entry): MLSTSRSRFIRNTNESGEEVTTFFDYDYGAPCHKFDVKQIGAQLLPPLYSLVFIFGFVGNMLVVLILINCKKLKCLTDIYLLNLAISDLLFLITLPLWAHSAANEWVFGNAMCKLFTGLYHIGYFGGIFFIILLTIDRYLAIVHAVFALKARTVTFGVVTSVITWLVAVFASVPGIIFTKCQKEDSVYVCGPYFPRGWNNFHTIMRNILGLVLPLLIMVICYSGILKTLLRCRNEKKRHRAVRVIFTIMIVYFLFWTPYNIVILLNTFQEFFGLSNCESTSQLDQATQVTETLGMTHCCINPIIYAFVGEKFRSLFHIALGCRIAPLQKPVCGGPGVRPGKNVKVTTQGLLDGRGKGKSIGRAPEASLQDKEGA

SMILES | IC50
O=C(C=CC=Cc1ccc(Cl)c(Cl)c1)NCCCN1CCOCC1 [Example 2, 5-(3,4-Dichloro-phenyl)-penta-2,4-dienoic Acid (3-morpholin-4-yl-propyl)-amide] | 10.8 µM

System: not given
Assay: not given
Conditions: not given

SMILES | melting point
O=C(/C=C/C=C/c1ccc(Cl)c(Cl)c1)NCCCN1CCCCC1 (as salt: HCl) [Example 1, 5-(3,4-Dichloro-phenyl)-penta-2,4-dienoic Acid (3-piperidin-1-yl-propyl)-amide-HCl] | 192 to 194 °C
O=C(C=CC=Cc1ccc(Cl)c(Cl)c1)NCCCN1CCOCC1 [Example 2, 5-(3,4-Dichloro-phenyl)-penta-2,4-dienoic Acid (3-morpholin-4-yl-propyl)-amide] | 130 to 132 °C
O=C(/C=C/C=C/c1ccc2ccccc2c1)NCCCN1CCCCC1 [Example 15, (2E,4E)-5-Naphthalen-2-yl-penta-2,4-dienoic Acid (3-piperidin-1-yl-propyl)-amide] | 150 to 156 °C
O=C(/C=C/C=C/c1ccc([N+](=O)[O-])cc1)NCCCN1CCCCC1 [Example 11, (2E,4E)-5-(4-Nitro-phenyl)-penta-2,4-dienoic Acid (3-piperidin-1-yl-propyl)-amide] | 225 to 226 °C
CC(=C/C(=O)NCCCN1CCCCC1)/C=C/c1ccc(Cl)c(Cl)c1 [Example 20, (2Z,4E)-5-(3,4-Dichloro-phenyl)-3-methyl-penta-2,4-dienoic Acid (3-piperidin-1-yl-propyl)-amide] | 50 to 60 °C
O=C(/C=C/C=C/c1ccccc1)NCCCN1CCCCC1 [Example 13, (2E,4E)-5-Phenyl-penta-2,4-dienoic Acid (3-piperidin-1-yl-propyl)-amide] | 111 to 115 °C
O=C(/C=C/C=C(c1ccccc1)c1ccccc1)NCCCN1CCCCC1 [Example 22, (2E) -5,5-Diphenyl-penta-2,4-dienoic acid (3-piperidin-1-yl-propyl)-amide] | 55 to 65 °C
O=C(/C=C/C=C/c1ccc(Cl)cc1)NCCCN1CCCCC1 [Example 12, (2E,4E)-5-(4-Chloro-phenyl)-penta-2,4-dienoic Acid (3-piperidin-1-yl-propyl)-amide] | 60 to 62 °C
CC(/C=C/c1ccc(Cl)c(Cl)c1)=C\C(=O)NCCCN1CCCCC1 [Example 19, (2E,4E)-5-(3,4-Dichloro-phenyl)-3-methyl-penta-2,4-dienoic Acid (3-piperidin-1-yl-propyl)-amide] | 165 to 170 °C
COc1ccc(/C=C/C=C/C(=O)NCCCN2CCCCC2)cc1 [Example 10, (2E,4E)-5-(4-Methoxy-phenyl)-penta-2,4-dienoic Acid (3-piperidin-1-yl-propyl)-amide] | 69 to 73 °C
Cc1ccc(/C=C/C=C/C(=O)NCCCN2CCCCC2)cc1 [Example 9, (2E,4E)-5-p-Tolyl-penta-2,4-dienoic Acid (3-piperidin-1-yl-propyl)-amide] | 40 to 50 °C
O=C(/C=C/C=C/c1ccc(Cl)cc1Cl)NCCCN1CCCCC1 [Example 17, (2E,4E)-5-(2,4-Dichloro-phenyl)-penta-2,4-dienoic Acid (3-piperidin-1-yl-propyl)-amide] | 66 to 69 °C
C/C(=C\C=C\C(=O)NCCCN1CCCCC1)c1ccc(Cl)c(Cl)c1 [Example 21, (2E,4E)-5-(3,4-Dichloro-phenyl)-hexa-2,4-dienoic Acid (3-piperidin-1-yl-propyl)amide] | 65 to 70 °C
O=C(/C=C/C=C/c1cc(Cl)cc(Cl)c1)NCCCN1CCCCC1 [Example 16, (2E,4E)-5-(3,5-Dichloro-phenyl)-penta-2,4-dienoic Acid (3-piperidin-1-yl-propyl)-amide] | 186 to 187 °C
O=C(/C=C/C=C/c1ccc(-c2ccccc2)cc1)NCCCN1CCCCC1 [Example 14, (2E,4E)-5-Biphenyl-4-yl-penta-2,4-dienoic Acid (3-piperidin-1-yl-propyl)-amide] | 165 to 168 °C
